We go through two compounds from article PMC2644664, “Effects of the K65R and K65R/M184V reverse transcriptase mutations in subtype C HIV on enzyme function and drug resistance” (Retrovirology, 2009).

Experiment [1] concerns the target T1, subtype C HIV-1 RT (cWT), recombinant p66/p51 heterodimer.
T1 construct: gene pol; mature RT cut from Gag-Pol polyprotein; plasmid pcRT6H-PROT, His-tagged, E. coli M15(pREP4); with p51 RT
Kind of experiment: steady-state filter-binding assay, [3H]dATP incorporation. Type of experiment: biochemical, Human immunodeficiency virus type 1. The settings on record: dPR primer on subtype C HIV-1 PBS RNA, 50 μM dCTP/dGTP/dTTP, 5 mM MgCl2, pH 7.8, 37°C. The source says:
steady-state filter-binding assay, [3H]dATP incorporation on subtype C HIV-1 RT (cWT), recombinant p66/p51 heterodimer

In experiment [2] the test system is T1, subtype C HIV-1 RT (cWT), recombinant p66/p51 heterodimer. Kind of experiment: gel-based primer extension, inhibition of full-length DNA synthesis. The settings on record: 19D/57D DNA primer/template. Format: biochemical, Human immunodeficiency virus type 1. From the text: gel-based primer extension, inhibition of full-length DNA synthesis on subtype C HIV-1 RT (cWT), recombinant p66/p51 heterodimer | we determined the efficiencies of incorporation of TFV-DP using subtype C WT

The term Ki denotes a dissociation constant, usually derived from enzyme kinetics or from competition with a known ligand. Usually IC50 stands for the concentration that inhibits the measured activity by half. Regarding `C[C@H](Cn1cnc2c(N)ncnc21)OCP(=O)(O)OP(=O)(O)OP(=O)(O)O` [TFV-DP], the Ki in experiment [1] (variable dATP, chain terminator, read-out: Ki(TFV), μM^b) worked out at 0.24 ± 0.04 µM. Moreover, the 50% inhibitory concentration (IC50) in experiment [2] stood at 2600 ± 500 nM.
As a reminder, the Km is the concentration of substrate that gives half-maximal velocity. On to `Nc1ncnc2c1ncn2[C@H]1C[C@H](O)[C@@H](COP(=O)(O)OP(=O)(O)OP(=O)(O)O)O1` [dATP], for which the Michaelis-Menten constant (Km) in experiment [1] (no TFV-DP) came to 0.51 ± 0.04 µM.
